For 87 molecules, melting point results are on record in a melting point compilation (Tetko et al.; mined from patent text by program, amines drawn as free bases though some values may be those of a salt).

Residues, ends and D or L forms follow the SMILES beside them. *: point of attachment. Tos = Cc1ccc(S(=O)(=O)*)cc1

For the molecule `Cc1cn(COC(COCc2ccccc2)COCc2ccccc2)c(=O)[nH]c1=O`, the melting point was 96 to 98 °C.

`Cc1cccc(NC(=O)NCC(=O)N(c2ccccc2)c2cccc(Cl)c2)c1` displayed a melting point of 184 °C. The same measure for `COC(=O)c1cc([N+](=O)[O-])c(Cl)c(S(=O)(=O)Cl)c1`: 92 to 94 °C; for `CN1CCC(N(CCCC2CCCO2)S(=O)(=O)c2ccc(Nc3nccc(Nc4ccc(F)cc4)n3)cc2)CC1` (configuration not stated): 189 °C. With `Cc1ccnc(-c2ccc(CBr)cc2)n1`, the melting point was 104 to 106 °C. `CN1CC(CC#N)CC2c3cccc4c3C(CN4)CC21` (configuration not stated) returned a melting point of 100 to 104 °C. As to `CCCC(CCC)Nc1cc(C)nc(Cl)c1N`, the melting point fell in the range of 139 to 140 °C. The same measure for `CCCCN(C(=O)C1CC1)c1nnc(C)s1`: 82 to 84 °C; for `CNC(=O)C(=O)CCCCCCc1csc(-c2ccccc2)n1`: 70 to 72 °C. The same measure for `O=C(O)CCc1c(-c2ccc(F)cc2)[nH]c2ccc(Cl)cc12`: 153 to 154 °C; for `CC(C)(N)c1ccc(-c2nc(Nc3ccc(F)c(F)c3)ncc2C#N)cc1`: 192 °C; for `COc1ccc(Nc2nc(Cl)cc3ccccc23)cc1`: 101 °C.

Consider `CC(=O)Oc1ccc(C(CC(=O)O)CC(=O)OCC(=O)C2CCC3C4CCC5=CC(=O)CCC5(C)C4C4CC23C(O)O4)cc1` (configuration not stated), for which the melting point was 145 to 160 °C. The same measure for `O=C(NCCc1ccccc1Cl)c1ccccc1`: 70.1 to 71 °C. The same measure for `CCc1cc(CC)c2ccc(=O)[nH]c2n1`: 159 to 161 °C; for `CCCCCCCCCCCCNCC(O)CO` (configuration not stated): 75 to 76 °C. Under `Cc1cccc(NC(=O)NC(Cc2ccccc2)C(=O)N(CC(=O)OC(C)(C)C)c2ccccc2)c1` (racemic) stands 198 °C; under `S=C1CCCC(c2ccc(Br)cc2)N1` (configuration not stated), 157 °C. In the case of `CCc1[nH]n(C2CCCC2)c2nc(Cc3cccc(OC)c3)nc(=O)c1-2`, the melting point was in the range of 148 to 150 °C. `CCCCCC1OC12CCC(Nc1ncnc(CC)c1Cl)CC2` (configuration not stated) yielded a melting point of 41 to 42 °C.

`CC(=O)NC[C@H]1CN(c2ccc(N3CC(C)(O[Si](C)(C)C(C)(C)C)C3)c(F)c2)C(=O)O1` returned a melting point of 137 to 138 °C. The molecule `Cc1cccc2c1nc(-c1cccc3ccccc13)n2Cc1c(F)cccc1F` came in with a melting point of 121 to 123 °C. The same measure for `CCCCCS(=O)(=O)NC(=O)/C=C/c1ccc(OCCCOC)cc1Oc1ncc(C(F)(F)F)cc1Cl`: 116 to 118 °C; for `CCCCCCN1CCC[C@H](NCc2ccccc2OC)[C@@H]1c1ccccc1` (relative stereo): 48 to 50 °C. Under `CC(C)OCC1(C(F)(F)F)c2cc(Cl)ccc2Nc2ncc(Cl)cc21` (configuration not stated) stands 137 to 138 °C; under `Cc1c(F)c(Oc2cc(C(F)(F)F)nn2C)nc(Oc2cc(C(F)(F)F)nn2C)c1F`, 101 °C; under `CC(C)Nc1cccnc1N1CCN(C(=O)c2cc3cc(NS(=O)(=O)N4CCOCC4)ccc3[nH]2)CC1`, 210 to 212 °C. The same measure for `C=CCn1c(=O)c2[nH]c(C34CC5CC(CC3C5)C4)nc2n(CCC)c1=O`: 191 to 192 °C; for `Cc1cccc2c(=O)c(CCCl)n[nH]c12`: 222 to 225 °C.

Consider `CC1(C)N=C(c2ccccc2F)c2cc([N+](=O)[O-])ccc2NC1=O`, for which the melting point stood at 241 °C. The same measure for `CNc1nc(-c2cccc(C(=O)Nc3ccccc3)c2)c2cc(OC)c(OC)cc2n1`: 242 to 244 °C; for `CS(=O)(=O)c1ccc(-c2cc(-c3nc4ccccc4c(=O)n3-c3ccc(Cl)cc3)sc2N2CCOCC2)cc1`: above 275 °C. Under `COc1cc2c(cc1F)C1(CO2)C(=O)N(Cc2ccc(C(F)(F)F)o2)c2ccccc21` (configuration not stated) stands 45 to 47 °C; under `Cc1csc2nc3c(c(NC(=O)CN4C(=O)NC(=O)[C@@H]4C)c12)CCCC3`, 273 to 277 °C. Under `CCCCCCCCC(SCCCCCC)C(=O)Nc1c(OCC)ccc2ncccc12` (configuration not stated) stands 88 to 90 °C; under `Cc1ccc(N=CN(C)C=Nc2ccccn2)c(C)c1`, 100 °C. Turning to `C[C@H](NC(=O)OC(C)(C)C)C(=O)NCc1cccc(Nc2n[nH]c3ncnc(Nc4cccc(Cl)c4)c23)c1`, the melting point lay in the range of 150 to 153 °C. The same measure for `O=C1NCCc2[nH]c3cc(F)ccc3c21`: 213 to 215 °C; for `CCN(C(=O)Cn1c(=O)n(C)c2nc(-c3ccccc3)nc(OC)c21)c1ccccc1`: 173 to 175 °C. The same measure for `Cc1cc(Cn2nc(C(F)(F)F)cc2C(F)(F)F)ccc1N1C(=O)c2cccc(F)c2C1=O`: 158 to 159 °C; for `CC(C)(N)C(O)c1cc(C(F)(F)F)nc2c(C(F)(F)F)cccc12` (configuration not stated): 175 to 176 °C; for `Cc1cc(C(=O)O)ccc1C1=CCCCC1C(C)(C)C` (configuration not stated): 152 °C.

Take `CCOCc1nc2c(N)nc3ccccc3c2n1CCOCCCS(=O)(=O)N(C)C`: the melting point was in the range of 61 to 64 °C. The same measure for `CNCc1cc(Oc2ccc3c(C(=O)Nc4cccc(C(F)(F)F)c4)cccc3c2)ncn1`: 141 to 143 °C; for `COc1ccc(/C=C/C(=O)Nc2ccccc2C(N)=O)cc1OC`: 184 to 186 °C. For `COc1cccc(N(CC(=O)O)C(=O)CN2C(=O)c3ccccc3C2=O)c1`, the melting point was 198 °C.

For the molecule `CCOC(=O)c1cn(CC)c2nc(N3CCN(Cc4ccccc4)CC3)ncc2c1=O`, the melting point is 152 °C.

Molecule `OCc1cn(-c2ccc3ccccc3n2)cn1` had a melting point of 136 to 137 °C. On to `CCOc1cscc1C(=O)Nc1cc(Cl)ccc1SSc1ccc(Cl)cc1NC(=O)c1cscc1OCC`, for which the melting point was 179 to 181 °C. Under `O=C1NCCC[C@@H]1NS(=O)(=O)c1c(F)cccc1F` stands 152 to 153 °C; under `NS(=O)(=O)c1ccc(N2N=C(C(F)(F)F)CC2c2c[nH]c3ccccc23)cc1` (configuration not stated), 138 to 140 °C. The same measure for `CCCc1nc2cc3c(cc2[nH]1)NC(=O)C3C` (configuration not stated): 235 to 238 °C.

For the molecule `CCN1C(=O)C(C)(C)C(=O)N(C)c2cc(CN(CCn3ccc4oc(C)cc4c3=O)Cc3cc(COC)nn3C)ccc21`, the melting point was in the range of 113 to 115 °C. Under `CCCCCC(O)CNCCCCCCCCNCC(O)CCCCC` (configuration not stated) stands 128 to 133 °C. The same measure for `COc1cc(C=C2OC(C)=CC2=O)cc(OC)c1O`: 188 to 190 °C; for `CCCc1ccc(-c2ccc(-c3ccc(F)s3)c(F)c2)cc1`: 64 °C; for `O=C(O)C=CC(=O)c1ccc(Oc2ccc(Cl)c(Cl)c2)cc1`: 155 to 156 °C. The molecule `Cc1noc(C)c1-c1ccc(F)cc1OC1SCC(O)C(O)C1O` (configuration not stated) gave a melting point of 192 °C. Under `CC(C)(C)OC(=O)C(Nc1ccccc1)c1cccc(Cl)c1` (racemic) stands 96 °C; under `CON1CC(c2ccc(OCc3ccccc3)cc2)CC1=O` (configuration not stated), 92 to 97 °C; under `COc1ccc2c(c1)Sc1cc(OC)c(Cl)cc1C(=O)C2`, 186 to 188 °C.

The molecule `Cc1ccc(S(=O)(=O)N2CCC[C@H]2C(=O)N[C@@H](CC(N)=O)C(=O)O)cc1` (Tos-Pro-Asn-OH) yielded a melting point of 178 to 180 °C. Under `O=C(Nc1cccc(Cl)c1)C1C(=O)Sc2ccc(Cl)cc21` (configuration not stated) stands 160 to 163 °C; under `Cc1sc2c(c1C(=O)c1ccc(S(C)=O)cc1)CCC2C(=O)O` (configuration not stated), 209 to 213 °C. Under `COC(=O)CCCc1cc2nc(Cl)ccc2n1S(=O)(=O)c1cccc(-c2cscn2)c1` stands 147 to 148 °C; under `CN(C)c1ccc(-c2cc3ccccc3o2)cc1`, 178 to 181 °C; under `CSc1ncc(CCN2CCC(C3(c4ccc(F)cc4)OCCO3)CC2)c(O)n1`, 206 °C. The same measure for `CCc1ccc2c(c1)C=Cc1cc(C)ccc1C2c1cn(-c2ccnc(NCC(=O)Nc3ncc(CC(=O)O)s3)n2)c(=O)[nH]c1=O` (configuration not stated): 206 to 208 °C. On to `CSc1ccc(Br)c2c1C1=NOCC1C2` (configuration not stated), for which the melting point was in the range of 127 to 135 °C.

In turn, `CCN(Cc1ccc(F)nc1)C(=S)NC` gave a melting point of 123 to 124 °C. Under `CC(C(N)=O)C1CC(c2ccc(N3CCSCC3)c(F)c2)=NO1` (configuration not stated) stands 188 to 189 °C. `O=C1CS(=O)c2ccccc2N1` (configuration not stated) came in with a melting point of 184 to 186 °C. As for `Clc1ccc(COC(C=Cc2ccccc2)Cn2ccnc2)c(Cl)c1` (configuration not stated), the melting point was determined as 134 °C.

`NNc1ccc(CS(N)(=O)=O)cc1` showed a melting point of 156 to 158 °C. The same measure for `CC(C)(C)OC(=O)NCc1cc([N+](=O)[O-])ccc1Cl`: 77 °C; for `CCc1cnc(N2CCN(C(=O)c3ccc(CNc4ncnc5ccccc45)cc3)CC2)nc1`: 170 to 171 °C; for `CN1CC=C(C2=C(C#N)C(c3cccc(C#N)c3Br)c3c[nH]nc3N2)CC1` (configuration not stated): 233 °C. Under `COc1ccc2c(c1)CC[C@@H](O)[C@@H]2n1nc(-c2c(-c3ccccc3)nn3ccccc23)ccc1=O` (relative stereo) stands 146 to 150 °C; under `O=C(NC[C@H]1CN(c2ccc3c(c2)CCCc2cnoc2-3)C(=O)O1)c1ccccc1`, 240 to 245 °C. The same measure for `FC(F)(F)c1ccc(-c2oncc2CCl)cc1`: 99 to 100 °C; for `O=C(C=CCN1CCN(C[C@H]2CCC(=O)O2)CC1)Nc1cc2c(Nc3ccc(F)c(Cl)c3)ncnc2cc1OCC1CC1`: 145 to 150 °C.

On to `CCn1ccc2c(ccc3[nH]cc(CCN)c32)c1=O`, for which the melting point is 224 to 227 °C. `COc1ccc2cc([C@H](C)C(=O)OCCOc3ccc(OCCO)cc3)ccc2c1` gave a melting point of 76 to 78 °C. The same measure for `Cc1cc(=O)c(Oc2ccc(F)cc2F)c(-c2ccc(S(C)=O)cc2)o1` (configuration not stated): 158 to 159 °C; for `CCCCCC(CCn1ccnc1)Sc1ccc(C(C)(C)C)cc1` (configuration not stated): 192 to 193 °C; for `COC(=O)COc1ccc(S(=O)(=O)c2ccc(O)cc2)cc1`: 159 to 161 °C.

In turn, `Cc1nc(NC(=O)c2cnn3c(C(F)(F)F)cc(-c4ccc(Cl)cc4)nc23)sc1S(N)(=O)=O` returned a melting point of 305 °C.
